These results are taken from article PMC10615883 (Angewandte Chemie (International ed. in English), 2023).

The target of this assay is Aβ40 aggregates (amyloid beta) (Homo sapiens, UniProt P05067). The experiment in a line: fluorescence titration with Aβ aggregates. Format: binding.
Aβ40 aggregates (amyloid beta), sequence (P05067 672-711 limits assumed): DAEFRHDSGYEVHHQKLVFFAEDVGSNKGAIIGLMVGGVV

By Kd is commonly meant a measure of binding affinity in units of concentration. Read a low Kd as a tighter complex. CRANAD-147 had a Kd of 2890 ± 430 nM.
